GI50 and TGI data for ten molecules are collected here from PubChem BioAssay (NCI).

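These data come from cells grown in 96-well plates and exposed to compound for 48 hours at five concentrations. GI50: concentration for 50% inhibition of growth. TGI marks complete inhibition of growth.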

Some test systems named below: ACHN renal; HCT-116 colon; SNB-19 CNS; NCI-H226 lung; K-562 leukemia; NCI/ADR-RES ovarian; HL-60(TB) leukemia; U251 CNS; UO-31 renal; CCRF-CEM leukemia.
Test in all cases: NCI tumour cell line growth inhibition, 48 h

Regarding `CC(C)(C)OC(=O)N(CCCCN(CCCn1c2c(c3ccccc3c1=O)C(=O)c1ccccc1-2)C(=O)OC(C)(C)C)CCCn1c2c(c3ccccc3c1=O)C(=O)c1ccccc1-2`, the GI50 is 14.3 µM in the test with ACHN renal; 1.9 µM with HCT-116 colon; 72 µM in the test on SNB-19 CNS; 99.2 µM with NCI-H226 lung; 90.5 µM in the test on K-562 leukemia; 30.1 µM with NCI/ADR-RES ovarian. The GI50 with HL-60(TB) leukemia is over 100 µM; in the test with U251 CNS it was 27.2 µM; in the test with UO-31 renal it was 28.4 µM. Further, the TGI in the test with ACHN renal, in the test with HCT-116 colon, with SNB-19 CNS, with NCI-H226 lung, with K-562 leukemia and with NCI/ADR-RES ovarian was over 100 µM throughout. The TGI with HL-60(TB) leukemia, in the test with U251 CNS and with UO-31 renal was over 100 µM each time.

As to `CN(c1cccc(C(=O)O)c1)c1cc(O/N=[N+](\[O-])N(C)C)c([N+](=O)[O-])cc1[N+](=O)[O-]`, the GI50 in the test with ACHN renal was over 100 µM; in the test on HCT-116 colon it was over 100 µM; in the test on SNB-19 CNS, over 100 µM; with NCI-H226 lung, over 100 µM; in the test on K-562 leukemia, 78.8 µM; in the test on NCI/ADR-RES ovarian, over 100 µM. The GI50 is 72.2 µM in the test with HL-60(TB) leukemia, over 100 µM in the test with U251 CNS and over 100 µM in the test with UO-31 renal. Moreover, the TGI in the test on ACHN renal, in the test with HCT-116 colon, with SNB-19 CNS, in the test with NCI-H226 lung, in the test with K-562 leukemia and with NCI/ADR-RES ovarian was over 100 µM in each case. Besides, the TGI in the test on HL-60(TB) leukemia, in the test on U251 CNS and in the test on UO-31 renal was over 100 µM in each case.

For the molecule `O=C1c2ccccc2C(=O)N1c1ccc(Cc2ccc(N3C(=O)c4ccccc4C3=O)cc2)cc1`, the TGI in the test on ACHN renal, in the test on HCT-116 colon, in the test on SNB-19 CNS, with NCI-H226 lung, with K-562 leukemia and in the test on NCI/ADR-RES ovarian was over 100 µM throughout. For the same molecule, the TGI in the test on U251 CNS and in the test on UO-31 renal was over 100 µM throughout.

As for `COc1ccc([N+](=O)[O-])c2c(NCCCN(C)C)c(C)c(C)nc12`, the TGI in the test on CCRF-CEM leukemia, in the test with ACHN renal, with HCT-116 colon, in the test with SNB-19 CNS, in the test on K-562 leukemia and in the test with NCI/ADR-RES ovarian was over 100 µM throughout. The TGI in the test with HL-60(TB) leukemia, in the test on U251 CNS and with UO-31 renal was over 100 µM throughout.

For the molecule `C=C1C(=O)OC2CC1C(OC(=O)/C=C/c1ccccc1)C/C(C)=C/CC/C(C)=C/CCC2(C)O` (stereo not drawn), the TGI is 3.08 µM with ACHN renal; 2.38 µM in the test on HCT-116 colon; 3.51 µM in the test with SNB-19 CNS; 3.57 µM in the test with NCI-H226 lung; over 100 µM in the test on K-562 leukemia; 9.4 µM in the test with NCI/ADR-RES ovarian. For the same molecule, the TGI in the test on U251 CNS amounted to 4.28 µM; in the test on UO-31 renal it was 3 µM.

Take `CNc1c2ccccc2nc2occ(Cl)c12`: the GI50 in the test with CCRF-CEM leukemia is 27.1 µM; in the test with ACHN renal it was 24 µM; in the test on HCT-116 colon it was 17.1 µM; with SNB-19 CNS it was 51.6 µM; in the test with NCI-H226 lung, 32.9 µM; in the test with K-562 leukemia it was 26.4 µM. For the same molecule, the values for the GI50 in the test on NCI/ADR-RES ovarian, in the test on U251 CNS and in the test on UO-31 renal were 30.1 µM, 31.4 µM and 31.3 µM, respectively. In addition, the TGI in the test with CCRF-CEM leukemia is 84.5 µM; in the test on ACHN renal, 70.5 µM; with HCT-116 colon it was 40.5 µM; in the test on SNB-19 CNS, over 100 µM; in the test with NCI-H226 lung, over 100 µM; with K-562 leukemia, over 100 µM. Further, the TGI in the test with NCI/ADR-RES ovarian, in the test on U251 CNS and in the test on UO-31 renal was over 100 µM throughout.

Take `COc1ccc(/C=C\c2cc(OC)c(OC)c(OC)c2)cc1NC(=O)/C=C/c1ccc(OC)c(OC)c1`: the GI50 with CCRF-CEM leukemia was 4.19 µM; in the test on ACHN renal, 5.25 µM; in the test with HCT-116 colon, 4.35 µM; in the test on SNB-19 CNS it was 4.15 µM; with NCI-H226 lung it was 4.03 µM; with NCI/ADR-RES ovarian, 0.949 µM. Further, the GI50 is 2.54 µM in the test with HL-60(TB) leukemia, 3.53 µM in the test on U251 CNS and 6.21 µM in the test on UO-31 renal. In addition, the TGI in the test on CCRF-CEM leukemia, in the test on ACHN renal, in the test on HCT-116 colon, in the test with SNB-19 CNS, in the test with NCI-H226 lung and in the test with NCI/ADR-RES ovarian was over 100 µM each time. The TGI was 8.85 µM with HL-60(TB) leukemia, over 100 µM in the test on U251 CNS and over 100 µM in the test with UO-31 renal.

On to `O=C(O)c1cccc([As]=[As]c2cccc(C(=O)O)c2)c1` (stereo not drawn), for which the TGI in the test with CCRF-CEM leukemia is 79 µM; in the test with ACHN renal it was over 100 µM; with HCT-116 colon, over 100 µM; in the test with SNB-19 CNS, over 100 µM; with NCI-H226 lung, over 100 µM; in the test with K-562 leukemia, over 100 µM. The TGI in the test on NCI/ADR-RES ovarian was over 100 µM; with U251 CNS it was 35.5 µM; with UO-31 renal it was over 100 µM.

`CCN(Cc1ccc(Cl)c(Cl)c1)c1ccc2nc(N)nc(N)c2c1C`: the GI50 in the test with CCRF-CEM leukemia was 0.0252 µM; with ACHN renal, under 0.01 µM; with HCT-116 colon, under 0.01 µM; with SNB-19 CNS, 0.0141 µM; in the test with NCI-H226 lung it was 0.96 µM; with NCI/ADR-RES ovarian, 0.0104 µM. The GI50 in the test on HL-60(TB) leukemia is 0.195 µM; with UO-31 renal it was 0.0457 µM. In addition, the TGI with CCRF-CEM leukemia was found to be 6.3 µM; in the test on ACHN renal it was 1.78 µM; in the test on HCT-116 colon, 1.51 µM; with SNB-19 CNS, 1.51 µM; in the test on NCI-H226 lung it was 4.3 µM; in the test with NCI/ADR-RES ovarian, 1.63 µM. Besides, the TGI was determined as 2.54 µM in the test on HL-60(TB) leukemia and 1.64 µM in the test with UO-31 renal.

As to `COC(=O)CNC(=O)C(=O)c1c(O)c(O)c(C(C)C)c2cc(C)c(-c3c(C)cc4c(C(C)C)c(O)c(O)c(C(=O)C(=O)NCC(=O)OC)c4c3O)c(O)c12`, the GI50 is 2.14 µM in the test on CCRF-CEM leukemia; 1.42 µM with ACHN renal; 1.79 µM in the test with HCT-116 colon; 1.53 µM in the test on SNB-19 CNS; 1.88 µM in the test with K-562 leukemia; 1.93 µM in the test with NCI/ADR-RES ovarian. In addition, the GI50 in the test with U251 CNS is 1.53 µM; in the test on UO-31 renal, 1.43 µM. Further, the TGI with CCRF-CEM leukemia was over 50 µM; in the test with ACHN renal, 5.54 µM; in the test with HCT-116 colon it was 6.04 µM; in the test on SNB-19 CNS, 7.92 µM; with K-562 leukemia it was over 50 µM; with NCI/ADR-RES ovarian, 9.28 µM. Also, the TGI was 5.85 µM in the test on U251 CNS and 6.04 µM in the test on UO-31 renal.
